Data: ChEMBL document CHEMBL5727833, “MALT1 inhibitors and uses thereof” (2020)

molecular target: T1, Mucosa-associated lymphoid tissue lymphoma translocation protein 1 (Homo sapiens, UniProt Q9UDY8); experiment: Biological Assay: For exemplary compounds of the disclosure, Ki for inhibition of MALT1 was measured (Table E11). A concentration of 100 nM MALT1 was used for the assay.
T1 sequence (Q9UDY8 whole entry): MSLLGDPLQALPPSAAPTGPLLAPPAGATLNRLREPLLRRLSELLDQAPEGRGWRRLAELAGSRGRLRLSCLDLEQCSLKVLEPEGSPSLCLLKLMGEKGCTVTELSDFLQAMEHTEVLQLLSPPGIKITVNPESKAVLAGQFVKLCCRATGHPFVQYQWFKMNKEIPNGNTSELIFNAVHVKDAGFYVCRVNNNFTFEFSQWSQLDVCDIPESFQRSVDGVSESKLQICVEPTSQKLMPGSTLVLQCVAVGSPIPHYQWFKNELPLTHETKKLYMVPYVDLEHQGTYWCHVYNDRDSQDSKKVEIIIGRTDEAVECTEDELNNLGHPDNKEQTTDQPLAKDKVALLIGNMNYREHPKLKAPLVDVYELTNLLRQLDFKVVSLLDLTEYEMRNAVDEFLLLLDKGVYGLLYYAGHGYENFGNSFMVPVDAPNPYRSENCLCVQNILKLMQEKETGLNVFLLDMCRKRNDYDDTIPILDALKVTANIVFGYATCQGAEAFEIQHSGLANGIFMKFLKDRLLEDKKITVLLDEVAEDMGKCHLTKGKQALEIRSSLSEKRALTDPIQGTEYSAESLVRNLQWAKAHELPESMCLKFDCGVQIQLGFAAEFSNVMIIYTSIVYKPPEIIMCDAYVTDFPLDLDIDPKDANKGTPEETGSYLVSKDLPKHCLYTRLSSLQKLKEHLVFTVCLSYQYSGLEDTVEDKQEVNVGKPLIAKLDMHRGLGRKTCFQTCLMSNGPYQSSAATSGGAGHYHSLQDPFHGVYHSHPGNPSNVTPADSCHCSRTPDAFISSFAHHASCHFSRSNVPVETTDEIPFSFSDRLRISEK

CC(C)[C@H](NC(=O)c1ccc(Br)c(C#N)c1)C(=O)N1CCC[C@H]1C(=O)N[C@@H](CCCNC(=N)N)C(=O)CF was tested. Which Ki did it give?
The Ki was 13 nM.

Which Ki does the source give for CC(C)c1ccc(C(=O)N[C@H](C(=O)N2CCC[C@H]2C(=O)N[C@@H](CCCNC(=N)N)C(=O)CF)C(C)C)cc1 here?
Its Ki is 22 nM.

N=C(N)NCCC[C@H](NC(=O)[C@@H]1CCCN1C(=O)[C@H](Cc1cccnc1)NC(=O)c1ccc(Br)cc1)C(=O)CF was tested. Which Ki did it give?
Its Ki is > 1000 nM.

CC(C)[C@H](NC(=O)c1ccc(Br)c(F)c1)C(=O)N1CCC[C@H]1C(=O)N[C@@H](CCCNC(=N)N)C(=O)CF was tested. Which Ki did it give?
Its Ki is 78 nM.

CC(C)[C@H](NS(=O)(=O)c1ccc(Br)cc1)C(=O)N1CCC[C@H]1C(=O)N[C@@H](CCCNC(=N)N)C(=O)CF was tested. Which Ki did it give?
The Ki was 66 nM.

With N=C(N)NCCC[C@H](NC(=O)[C@@H]1C[C@@H](O)CN1C(=O)[C@@H](NC(=O)c1ccc(Br)cc1)C1CCCCC1)C(=O)CF as the compound, how does the Ki read?
The Ki was 34 nM.

Which Ki does the source give for Cc1nc(C(=O)N[C@H](C(=O)N2CCC[C@H]2C(=O)N[C@@H](CCCNC(=N)N)C(=O)CF)C(C)C)cs1 here?
The Ki was 52 nM.

How did the Ki turn out when CC(C)[C@H](NC(=O)Nc1ccccc1Cl)C(=O)N1CCC[C@H]1C(=O)N[C@@H](CCCNC(=N)N)C(=O)CF was run?
Its Ki is 24 nM.
